Data set [1] is described as follows: Pharmacokinetics and bioavailability after single s.c. injection. As to conditions: for extent of biological availability (EBA), solution relative to suspension: (AUCsolution/AUCsuspension) × 100 %, from AUC0−∞; for presence in the plasma after injection in the form of suspension: 24 h after s.c. 6 mg/kg.
The conditions of data set [2]: cited from earlier work.
Data set [3] relates to LH, FSH and 17β-estradiol in the serum. As to the kind of experiment: Hormonal profile. In kind it is in vivo, rat. As to conditions: s.c. 1 µg/kg; for highest estradiol concentration, suspension form: 1 h after injection.

In the case of buserelin, in data set [1], the “extent of biological availability (EBA), solution relative to suspension” value was found to be 13% and the “presence in the plasma after injection in the form of suspension” value is “detectable in the plasma even after 24 h”. Besides, in data set [2], the “activity / relative potency in relation to natural GnRH” value is listed as 20 times. The “maximal concentration of estradiol, form of solution” value in data set [3] (solution, 30 min after injection) was determined as 45.7 pg/mL. Further, the “time of maximal concentration of estradiol, form of solution” value in data set [3] (solution) was 30 min. In addition, in data set [3], the “highest estradiol concentration, suspension form” value stood at 21.4 pg/mL and the “time of highest concentration of FSH, suspension form” value came to 4 h.
Turning to dalarelin, the “EBA of dalarelin relative to buserelin, form of solution” value in data set [1] ((AUCdalarelin solution/AUCbuserelin solution) × 100 %) is 53%. Further, the “EBA of dalarelin relative to buserelin, form of suspension” value in data set [1] ((AUCdalarelin suspension/AUCbuserelin suspension) × 100 %) stood at 83%. Besides, in data set [1], the “extent of biological availability (EBA), solution relative to suspension” value is recorded as 8% and the “presence in the plasma after injection in the form of suspension” value is given as “detectable in the plasma even after 24 h”. In addition, in data set [2], the “activity / relative potency in relation to natural GnRH” value is listed as “roughly 14 times”. Further, the “time of maximal concentration of estradiol, form of solution” value in data set [3] (solution) is 30 min. In data set [3], the “highest estradiol concentration, suspension form” value stood at 24.2 pg/mL and the “time of highest concentration of FSH, suspension form” value is on record as 2 h.

The record behind these values is paper PMC5340827 (European Journal of Drug Metabolism and Pharmacokinetics, 2016).
